“And” between values parts separate entries of the source, which are not always exact repeats. Identical values can stand only once. Inconclusive results and toxic doses are left out. Cut-off read from the data, not from the text of the source: active = T/C of 150% or more; inactive = T/C below 125%.
Tested on: L1210 leukemia ip in BDF1 mice, survival T/C
Experiment: NCI In Vivo Anticancer Drug Screen. Data for tumor model L1210 Leukemia (intraperitoneal) in B6D2F1 (BDF1) mice
Details: endpoint: mean survival time, higher = longer survival
Procedure, shortened: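 Transplanted-tumor mice were given test agent; controls received vehicle only. Survival readings from the two groups were divided (treated over control).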

[1] = dose: 100.0 mg/kg/injection, schedule: Q04DX003 (ip), vehicle: Klucel (hydroxypropylcellulose) (HPC)
[2] = dose: 200.0 mg/kg/injection, schedule: Q04DX003 (ip), vehicle: Klucel (hydroxypropylcellulose) (HPC)
[3] = dose: 400.0 mg/kg/injection, schedule: Q04DX003 (ip), vehicle: Klucel (hydroxypropylcellulose) (HPC)
[4] = dose: 100.0 mg/kg/injection, schedule: Q01DX009 (ip), vehicle: saline
[5] = dose: 200.0 mg/kg/injection, schedule: Q01DX009 (ip), vehicle: saline
[6] = dose: 400.0 mg/kg/injection, schedule: Q01DX009 (ip), vehicle: saline
[7] = dose: 100.0 mg/kg/injection, schedule: Q01DX009 (ip), vehicle: Klucel (hydroxypropylcellulose) (HPC)
[8] = dose: 200.0 mg/kg/injection, schedule: Q01DX009 (ip), vehicle: Klucel (hydroxypropylcellulose) (HPC)
[9] = dose: 400.0 mg/kg/injection, schedule: Q01DX009 (ip), vehicle: Klucel (hydroxypropylcellulose) (HPC)
[10] = dose: 100.0 mg/kg/injection, schedule: Q04DX003 (ip), vehicle: saline
[11] = dose: 200.0 mg/kg/injection, schedule: Q04DX003 (ip), vehicle: saline
[12] = dose: 25.0 mg/kg/injection, schedule: Q01DX009 (ip), vehicle: saline
[13] = dose: 50.0 mg/kg/injection, schedule: Q01DX009 (ip), vehicle: saline
[14] = dose: 50.0 mg/kg/injection, schedule: Q04DX003 (ip), vehicle: saline
[15] = dose: 100.0 mg/kg/injection, schedule: Q01DX001 (ip), vehicle: saline
[16] = dose: 200.0 mg/kg/injection, schedule: Q01DX001 (ip), vehicle: saline
[17] = dose: 400.0 mg/kg/injection, schedule: Q01DX001 (ip), vehicle: saline
[18] = dose: 100.0 mg/kg/injection, schedule: Q04DX003 (ip), vehicle: saline with Tween-80

Measured: T/C

COc1ccc(SC2=C(N(C)C(C)=O)C(=O)c3ccccc3C2=O)cc1
inactive: dose: 7.5 mg/kg/injection, schedule: Q01DX009 (ip), vehicle: Klucel (hydroxypropylcellulose) (HPC) 89 % of control | dose: 15.0 mg/kg/injection, schedule: Q01DX001 (ip), vehicle: Klucel (hydroxypropylcellulose) (HPC) 93 % of control | dose: 15.0 mg/kg/injection, schedule: Q01DX009 (ip), vehicle: Klucel (hydroxypropylcellulose) (HPC) 92 % of control | dose: 30.0 mg/kg/injection, schedule: Q01DX001 (ip), vehicle: Klucel (hydroxypropylcellulose) (HPC) 88 % of control | dose: 30.0 mg/kg/injection, schedule: Q01DX009 (ip), vehicle: Klucel (hydroxypropylcellulose) (HPC) 89 % of control

NC(C(=O)O)c1cccc(Cl)c1 (stereo not given)
inactive: dose: 100.0 mg/kg/injection, schedule: Q01DX001 (ip), vehicle: Klucel (hydroxypropylcellulose) (HPC) 123 % of control | [1] 100 % of control | dose: 200.0 mg/kg/injection, schedule: Q01DX001 (ip), vehicle: Klucel (hydroxypropylcellulose) (HPC) 109 % of control | [2] 91 % of control | dose: 400.0 mg/kg/injection, schedule: Q01DX001 (ip), vehicle: Klucel (hydroxypropylcellulose) (HPC) 105 % of control | [3] 100 % of control

C[n+]1cn(CCCl)c2ccccc21
inactive: dose: 10.0 mg/kg/injection, schedule: Q01DX Z (ip), vehicle: saline 93 % of control | dose: 30.0 mg/kg/injection, schedule: Q01DX Z (ip), vehicle: saline 95 % of control

CC(=O)NCCc1ccc(NCCCc2c(-c3ccccc3)nc(N)[nH]c2=O)cc1
inactive: [4] 97 % of control | [5] 95 % of control | [6] 101 % of control

Cc1ccccc1C(Br)C1=CC(C)(C)c2ccccc2C1=O (stereo not given)
inactive: [7] 101 % of control | [1] 97 % of control | [8] 105 % of control | [2] 92 % of control | [9] 95 % of control | [3] 90 % of control

C/C(=N\O)C(=O)c1ccccc1
inactive: [7] 98 % of control | [1] 107 % of control | [10] 103 % of control | [8] 100 % of control | [2] 100 % of control | [11] 107 % of control | [9] 93 % of control | [3] 104 % of control | dose: 400.0 mg/kg/injection, schedule: Q04DX003 (ip), vehicle: saline 108 % of control

CCCCCCCCCC(=O)N1CCOCC1
inactive: [12] 98 % of control | dose: 25.0 mg/kg/injection, schedule: Q04DX003 (ip), vehicle: saline 97 % of control | [13] 113 % of control | [14] 101 % of control | [10] 94 % of control and 89 % of control

O=NN(CCCl)C(=O)Nc1ccc(CCCl)cc1
inactive: dose: 33.0 mg/kg/injection, schedule: Q01DX009 (ip), vehicle: carboxymethylcellulose (CMC) 107 % of control | dose: 50.0 mg/kg/injection, schedule: Q01DX009 (ip), vehicle: carboxymethylcellulose (CMC) 87 % of control
active: dose: 10.0 mg/kg/injection, schedule: Q01DX001 (ip), vehicle: carboxymethylcellulose (CMC) 161 % of control | dose: 20.0 mg/kg/injection, schedule: Q01DX001 (ip), vehicle: carboxymethylcellulose (CMC) 152 % of control | dose: 33.0 mg/kg/injection, schedule: Q01DX001 (ip), vehicle: carboxymethylcellulose (CMC) 246 % of control | dose: 50.0 mg/kg/injection, schedule: Q01DX001 (ip), vehicle: carboxymethylcellulose (CMC) 216 % of control

COCC(O)C(OC)C(OC)C(N)C=O (stereo not given)
inactive: [15] 101 % of control | [16] 101 % of control | [17] 107 % of control

COC1(c2ccccc2)OC12CC1CCC2C1 (stereo not given)
inactive: [14] 98 % of control | [15] 95 % of control | [10] 100 % of control | [16] 101 % of control | [11] 100 % of control | [17] 95 % of control

CC1CN(c2ccc([N+](=O)[O-])cc2)C(C)CN1N=O (stereo not given)
inactive: [12] 106 % of control | [13] 104 % of control | [4] 98 % of control | [5] 97 % of control | [6] 95 % of control

CC1=C(C)CC2C(=O)C=CC(=O)C2C1 (stereo not given)
inactive: dose: 50.0 mg/kg/injection, schedule: Q01DX009 (ip), vehicle: water 97 % of control | dose: 100.0 mg/kg/injection, schedule: Q01DX009 (ip), vehicle: water 97 % of control and 101 % of control | dose: 100.0 mg/kg/injection, schedule: Q04DX003 (ip), vehicle: water 89 % of control | dose: 200.0 mg/kg/injection, schedule: Q01DX009 (ip), vehicle: water 95 % of control | dose: 200.0 mg/kg/injection, schedule: Q04DX003 (ip), vehicle: water 101 % of control

N#CC(C#N)=Cc1cccc2ccccc12
inactive: dose: 50.0 mg/kg/injection, schedule: Q01DX009 (ip), vehicle: Klucel (hydroxypropylcellulose) (HPC) 97 % of control and 91 % of control | [7] 95 % of control and 103 % of control | [1] 102 % of control | [8] 96 % of control and 105 % of control | [2] 97 % of control | [3] 103 % of control

COc1ccccc1-n1c(O)c(N=Nc2ccccc2C)c(=O)n(-c2ccc(C)cc2)c1=S
inactive: dose: 37.5 mg/kg/injection, schedule: Q01DX001 (ip), vehicle: Klucel (hydroxypropylcellulose) (HPC) 102 % of control | dose: 75.0 mg/kg/injection, schedule: Q01DX001 (ip), vehicle: Klucel (hydroxypropylcellulose) (HPC) 99 % of control | dose: 150.0 mg/kg/injection, schedule: Q01DX001 (ip), vehicle: Klucel (hydroxypropylcellulose) (HPC) 89 % of control

COc1ccc2c(Nc3ccc(NS(C)(=O)=O)cc3)c3ccccc3nc2c1
inactive: dose: 25.0 mg/kg/injection, schedule: Q01DX009 (ip), vehicle: saline with Tween-80 117 % of control | dose: 50.0 mg/kg/injection, schedule: Q01DX009 (sc), vehicle: saline 95 % of control
active: dose: 6.25 mg/kg/injection, schedule: Q01DX009 (ip), vehicle: saline with Tween-80 183 % of control | dose: 12.5 mg/kg/injection, schedule: Q01DX009 (ip), vehicle: saline with Tween-80 181 % of control | dose: 25.0 mg/kg/injection, schedule: Q01DX009 (sc), vehicle: saline 164 % of control | dose: 44.0 mg/kg/injection, schedule: Q04DX003 (ip), vehicle: saline with Tween-80 172 % of control | dose: 67.0 mg/kg/injection, schedule: Q04DX003 (ip), vehicle: saline with Tween-80 169 % of control | [18] 276 % of control

CC(=O)OC/N=[N+](/C)[O-]
inactive: dose: 2.0 mg/kg/injection, schedule: Q01DX Z (ip), vehicle: saline 98 % of control | dose: 4.0 mg/kg/injection, schedule: Q01DX Z (ip), vehicle: saline 110 % of control | dose: 6.0 mg/kg/injection, schedule: Q01DX Z (ip), vehicle: saline 97 % of control | dose: 8.0 mg/kg/injection, schedule: Q01DX Z (ip), vehicle: saline 104 % of control | dose: 12.5 mg/kg/injection, schedule: Q01DX Z (ip), vehicle: saline 91 % of control

CCCSCCCCSCCC
inactive: dose: 25.0 mg/kg/injection, schedule: Q04DX003 (ip), vehicle: saline with Tween-80 115 % of control | dose: 50.0 mg/kg/injection, schedule: Q04DX003 (ip), vehicle: saline with Tween-80 104 % of control | dose: 100.0 mg/kg/injection, schedule: Q01DX009 (ip), vehicle: saline with Tween-80 100 % of control | [18] 102 % of control | dose: 200.0 mg/kg/injection, schedule: Q01DX009 (ip), vehicle: saline with Tween-80 109 % of control | dose: 200.0 mg/kg/injection, schedule: Q04DX003 (ip), vehicle: saline with Tween-80 92 % of control | dose: 400.0 mg/kg/injection, schedule: Q01DX009 (ip), vehicle: saline with Tween-80 91 % of control | dose: 400.0 mg/kg/injection, schedule: Q04DX003 (ip), vehicle: saline with Tween-80 95 % of control

CC(C)=NOC(C)C(=O)O (stereo not given)
inactive: [13] 94 % of control and 101 % of control | [14] 95 % of control | dose: 75.0 mg/kg/injection, schedule: Q01DX001 (ip), vehicle: saline 101 % of control and 98 % of control | [4] 91 % of control and 97 % of control | [10] 100 % of control and 98 % of control | dose: 150.0 mg/kg/injection, schedule: Q01DX001 (ip), vehicle: saline 103 % of control and 106 % of control | [5] 92 % of control and 103 % of control | [11] 97 % of control and 95 % of control | dose: 300.0 mg/kg/injection, schedule: Q01DX001 (ip), vehicle: saline 114 % of control

Reference: PubChem BioAssay AID248 (DTP/NCI, 2004)
